Measurements reported in patent publication US8022225B2, “Triazole derivative” (Taisho Pharmaceutical Co., Ltd, priority 2004, dated 2011).

Key:
[1] = target: T1, human Edg-1(S1P1) (Homo sapiens, UniProt P21453); experiment: Cell system binding test: inhibition of [3H]-S1P binding to Edg-1(S1P1) gene transferred HEK-293 cells; conditions: [3H]-S1P 10 nM
T1 construct: expressed in transfected cells; host or cells: HEK-293

[2] = target: T1, human Edg-1(S1P1); experiment: Membrane system binding test: inhibition of [33P]-S1P binding to the membrane fraction of Edg-1(S1P1) gene transferred HEK-293 cells; conditions: [33P]-S1P 0.1 nM
In short: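 Compound tested at 10^−5 M final (0.1% DMSO) for blocking 0.1 nM [^33P]-S1P binding to S1P1-expressing HEK-293 membranes, 30 °C, 1 h. Radioactivity retained on filters was counted, and percent inhibition derived relative to vehicle binding, correcting for the background of non-transfected HEK-293 membranes.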

[3] = 10 μM compound, read-out: Cell system binding test % inhibition (10 μM)
[4] = 10 μM compound, membrane fraction of Edg-1(S1P1) gene transferred HEK-293 cells, read-out: Membrane system binding test % inhibition (10 μM)
[5] = test compound 10^-5 M, 1 hour, read-out: Edg-1(S1P1) binding inhibition rate (cell system binding test)
[6] = test compound 10^-5 M, 1 hour at 30° C., HEK-293 membrane fraction, read-out: Edg-1(S1P1) binding inhibition rate (membrane system binding test)

T1 sequence (P21453 whole entry): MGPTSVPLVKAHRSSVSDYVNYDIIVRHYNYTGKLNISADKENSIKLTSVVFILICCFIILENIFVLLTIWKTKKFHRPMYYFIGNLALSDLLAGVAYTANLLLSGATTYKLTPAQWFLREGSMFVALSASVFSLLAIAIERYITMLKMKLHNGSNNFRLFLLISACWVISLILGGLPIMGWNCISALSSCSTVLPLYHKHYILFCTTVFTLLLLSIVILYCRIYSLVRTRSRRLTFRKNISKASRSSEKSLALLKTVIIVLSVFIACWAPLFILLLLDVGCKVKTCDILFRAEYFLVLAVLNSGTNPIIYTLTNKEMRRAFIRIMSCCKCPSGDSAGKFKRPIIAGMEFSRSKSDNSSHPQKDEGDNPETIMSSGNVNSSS

Row | Structure (SMILES) | inhibition at 10 µM [1, 3] [%] | inhibition at 10 µM [2, 4] [%] | inhibition at 10 µM [1, 5] [%] | inhibition at 10 µM [2, 6] [%]
1 | CCCOc1nnc([C@@H](Cc2ccccc2)NS(=O)(=O)c2ccc(Cl)cc2)n1CC [Compound 386] | 103 | 99.5 | – | –
2 | CCOc1nnc([C@@H](C)NS(=O)(=O)c2ccc(C)c(C)c2)n1CC [Compound 410] | 96.4 | 86.1 | – | –
3 | CCn1c(SC(C(=O)OC)c2ccccc2)nnc1[C@@H](C)NS(=O)(=O)c1ccc(Cl)cc1 (stereo partly drawn) [Compound 52] | 93.6 | 89.1 | – | –
4 | CCOc1nnc([C@@H](C)NS(=O)(=O)c2cc(F)c(F)c(F)c2)n1CC [Compound 450] | 92.3 | 93.8 | – | –
5 | CCn1c(OC(C)C)nnc1[C@@H](C)NS(=O)(=O)c1cc(F)c(F)c(F)c1 [Compound 458] | – | – | 86.5 | 91.9
6 | CCn1c(OC(C)C)nnc1[C@@H](C)NS(=O)(=O)c1cccc(Cl)c1 [Compound 479] | – | – | 93.3 | 83
7 | CCn1c(OC)nnc1[C@H](C)NS(=O)(=O)c1ccc(Cl)c([N+](=O)[O-])c1 [Compound 209] | 91.4 | 104 | – | –
8 | CCCc1ccc(S(=O)(=O)N[C@H](C)c2nnc(OC)n2CC)cc1 [Compound 262] | 96.5 | 68.8 | – | –
9 | CCn1c(OCC(F)(F)F)nnc1[C@@H](C)NS(=O)(=O)c1ccc(Br)c(C)c1 [Compound 489] | – | – | 103 | 98.4
10 | CCn1c(OC)nnc1[C@@H](C)NS(=O)(=O)c1ccc2ccccc2c1 [Compound 230] | 103 | 102 | – | –
11 | CCCCS(=O)(=O)N[C@H](C)c1nnc(OC)n1CC [Compound 202] | 96.6 | 60.3 | – | –
12 | CCn1c(OC)nnc1[C@@H](C)NS(=O)(=O)c1ccsc1C(=O)OC [Compound 255] | 96.3 | 48.3 | – | –
13 | CCn1c(OCCC(C)C)nnc1[C@@H](C)NS(=O)(=O)c1ccc(Cl)cc1 [Compound 391] | 92.5 | 78.3 | – | –
14 | CCn1c(OC)nnc1[C@@H](C)NS(=O)(=O)c1cccc(Cl)c1C [Compound 267] | 99.9 | 89.4 | – | –
15 | CCn1c(OC)nnc1[C@@H](C)NS(=O)(=O)c1ccc(Br)cc1Br [Compound 306] | 94.5 | 62.8 | – | –
16 | CCc1ccc(S(=O)(=O)N[C@H](C)c2nnc(OC)n2CC)cc1 [Compound 222] | 92.9 | 71.8 | – | –
17 | CCOc1nnc([C@@H](C)NS(=O)(=O)c2ccc(C)c(Cl)c2)n1CC [Compound 404] | 91.2 | 90 | – | –
18 | CCn1c(OC)nnc1[C@@H](C)NS(=O)(=O)c1ccc(C)cc1 [Compound 243] | 102 | 66 | – | –
19 | CCn1c(OC)nnc1[C@@H](C)NS(=O)(=O)c1cc(F)c(Br)cc1F [Compound 270] | 94.8 | 61.3 | – | –
20 | CCn1c(OC)nnc1[C@@H](C)NS(=O)(=O)c1ccc(Br)cc1 [Compound 200] | 97.4 | 93.3 | – | –

Row | Structure (SMILES) | inhibition at 10 µM [1, 3] [%] | inhibition at 10 µM [2, 4] [%] | inhibition at 10 µM [1, 5] [%] | inhibition at 10 µM [2, 6] [%]
21 | CCn1c(OCC(F)(F)F)nnc1[C@@H](C)NS(=O)(=O)c1ccc(Cl)cc1 [Compound 395] | 91.9 | 83.7 | – | –
22 | CCn1c(OC)nnc1[C@@H](C)NS(=O)(=O)C(C)C [Compound 224] | 92.2 | 54.5 | – | –
23 | C=CCSc1nnc([C@@H](C)NS(=O)(=O)c2ccc(Cl)cc2)n1CC [Compound 3] | 86.1 | 89.1 | – | –
24 | CCn1c(SCc2cccc(C)c2)nnc1[C@@H](C)NS(=O)(=O)c1ccc(Cl)cc1 [Compound 22] | 82.1 | 96.9 | – | –
25 | CCn1c(SCCN2CCNC2=O)nnc1[C@@H](C)NS(=O)(=O)c1ccc(Cl)cc1 [Compound 73] | 93.9 | 98.4 | – | –
26 | CCn1c(OC)nnc1[C@@H](C)NS(=O)(=O)c1cccc2ccccc12 [Compound 229] | 102 | 61.1 | – | –
27 | CCn1c(SCCc2ccccc2)nnc1[C@@H](C)NS(=O)(=O)c1ccc(Cl)cc1 [Compound 61] | 95 | 98.9 | – | –
28 | CCn1c(OCCOC)nnc1[C@@H](C)NS(=O)(=O)c1ccc(Cl)cc1 [Compound 375] | 92.6 | 54.3 | – | –
29 | CCn1c(OC)nnc1[C@@H](C)NS(=O)(=O)c1ccc(C(F)(F)F)cc1 [Compound 249] | 101 | 86.3 | – | –
30 | CCOc1nnc([C@@H](C)NS(=O)(=O)c2ccc(Cl)c(Cl)c2)n1CC [Compound 401] | 92.8 | 87.2 | – | –
31 | CCOc1nnc([C@@H](C)NS(=O)(=O)c2cc3ccccc3s2)n1CC [Compound 406] | 90.1 | 92.5 | – | –
32 | C=C(C)CSc1nnc(C(Cc2ccccc2)NS(=O)(=O)c2ccc(Cl)cc2)n1C (stereo not drawn) [Compound 136] | 103 | 94.7 | – | –
33 | CCn1c(OC(C)C)nnc1[C@@H](C)NS(=O)(=O)c1cccc(Cl)c1C [Compound 471] | – | – | 96.5 | 91
34 | CCn1c(OC)nnc1[C@@H](C)NS(=O)(=O)c1cc(F)c(Cl)cc1F [Compound 289] | 102 | 63.6 | – | –
35 | C=CCSc1nnc([C@@H](C)NS(=O)(=O)c2ccc(Cl)cc2)n1CCC [Compound 95] | 94 | 60.2 | – | –
36 | CCn1c(OC)nnc1[C@@H](C)NS(=O)(=O)c1ccccc1C#N [Compound 212] | 92.4 | 45.6 | – | –
37 | CCn1c(OC)nnc1[C@@H](C)NS(=O)(=O)c1cccc2cnccc12 [Compound 365] | 81.7 | 41.8 | – | –
38 | CCn1c(OC)nnc1[C@@H](C)NS(=O)(=O)c1ccc(F)c(Cl)c1 [Compound 268] | 98.7 | 88.6 | – | –
39 | CCOc1nnc([C@@H](C)NS(=O)(=O)c2cccc(OC)c2)n1CC [Compound 417] | 97.9 | 64.8 | – | –
40 | CCn1c(SCCCC(F)(F)F)nnc1[C@@H](C)NS(=O)(=O)c1ccc(Cl)cc1 [Compound 15] | 91 | 79.4 | – | –

Row | Structure (SMILES) | inhibition at 10 µM [1, 3] [%] | inhibition at 10 µM [2, 4] [%] | inhibition at 10 µM [1, 5] [%] | inhibition at 10 µM [2, 6] [%]
41 | CCn1c(OC)nnc1[C@@H](C)NS(=O)(=O)c1ccc(NC(C)=O)cc1 [Compound 444] | 18.2 | 60.9 | – | –
42 | CCCC(CCC)Sc1nnc([C@@H](C)NS(=O)(=O)c2ccc(Cl)cc2)n1CC [Compound 20] | 84.3 | 74.3 | – | –
43 | CCOc1nnc([C@@H](C)NS(=O)(=O)c2ccc(C)cc2)n1CC [Compound 429] | 95.1 | 74.2 | – | –
44 | CCn1c(SCC(N)=O)nnc1[C@@H](C)NS(=O)(=O)c1ccc(Cl)cc1 [Compound 83] | 85.6 | 99.5 | – | –
45 | CCn1c(SC2CCCC2)nnc1[C@@H](C)NS(=O)(=O)c1ccc(Cl)cc1 [Compound 9] | 90.1 | 86.7 | – | –
46 | CCn1c(OC)nnc1[C@@H](C)NS(=O)(=O)c1ccc(OC)c(OC)c1 [Compound 221] | 89.9 | 56.1 | – | –
47 | CCOc1nnc([C@@H](C)NS(=O)(=O)c2ccc(Br)c(C(F)(F)F)c2)n1CC [Compound 437] | 101 | 93.9 | – | –
48 | CCn1c(SC/C=C\COCc2ccccc2)nnc1[C@@H](C)NS(=O)(=O)c1ccc(Cl)cc1 [Compound 50] | 95.3 | 96.2 | – | –
49 | CCn1c(OC)nnc1[C@@H](C)NS(=O)(=O)c1cc(Br)c(Cl)s1 [Compound 252] | 103 | 100 | – | –
50 | CCn1c(OCC(F)(F)F)nnc1[C@@H](C)NS(=O)(=O)c1ccc(Br)s1 [Compound 484] | – | – | 102 | 63.2
51 | CCn1c(OCC(F)(F)F)nnc1[C@@H](C)NS(=O)(=O)c1cccc(OC(F)F)c1 [Compound 497] | – | – | 102 | 66.5
52 | CCn1c(OCC(F)(F)F)nnc1[C@@H](C)NS(=O)(=O)c1cccc(Cl)c1C [Compound 498] | – | – | 104 | 88.5
53 | CCOc1nnc([C@@H](C)NS(=O)(=O)c2ccc3c(c2)OCO3)n1CC [Compound 418] | 99.5 | 70.4 | – | –
54 | C=CCSc1nnc(C(C)NS(=O)(=O)c2ccc(Cl)cc2)n1C (stereo not drawn) [Compound 91] | 72.9 | 47.4 | – | –
55 | CCn1c(SCCC23CC4CC(CC(C4)C2)C3)nnc1[C@@H](C)NS(=O)(=O)c1ccc(Cl)cc1 [Compound 86] | 93.4 | 110 | – | –
56 | CCn1c(SCC(=O)c2ccccc2)nnc1[C@@H](C)NS(=O)(=O)c1ccc(Cl)cc1 [Compound 47] | 92.5 | 99.2 | – | –
57 | CCn1c(OC(C)C)nnc1[C@@H](C)NS(=O)(=O)c1ccc(Br)cc1 [Compound 461] | – | – | 87.9 | 89.5
58 | CCOc1nnc([C@@H](C)NS(=O)(=O)c2cccc(C(F)(F)F)c2)n1CC [Compound 414] | 101 | 81 | – | –
59 | CCn1c(OC(C)C)nnc1[C@@H](C)NS(=O)(=O)c1cccc(Br)c1 [Compound 460] | – | – | 94.5 | 76.3
60 | CCn1c(OC)nnc1[C@@H](C)NS(=O)(=O)c1cc(Cl)cc(Cl)c1O [Compound 216] | 97.2 | 63.7 | – | –
